Test results as given in patent publication US20140107219A1, “LOCAL ANAESTHETIC” (VITA (EUROPE) LIMITED, priority 2011, published 2014).
“And” between values parts separate entries of the source, which are not always exact repeats. Equal entries are not always repeated. Where two headings read alike, the source gives them in different places.

Experiments:
[1] = tested on: isolated sciatic nerve of the rat; assay: Evoked compound action potential (CAP) of the isolated rat sciatic nerve in a three-chamber bath (ex vivo): inhibition and recovery after washout; details: for IT100 / IT0: 1.41 mg/mL
[2] = biological target: T1, hNav1.6 sodium channels (SCN8A gene, expressed in CHO cells) (Homo sapiens, UniProt Q9UQD0); assay: Automated patch clamp (PatchXpress 7000A), cloned hNav1.6 in CHO cells, tonic and phasic; format: cell-based; details: for inhibition at 2000 µM: CHO; for IC50: FIG. 42
T1 construct: expressed in transfected cells; host or cells: CHO cells
T1 sequence (Q9UQD0 whole entry): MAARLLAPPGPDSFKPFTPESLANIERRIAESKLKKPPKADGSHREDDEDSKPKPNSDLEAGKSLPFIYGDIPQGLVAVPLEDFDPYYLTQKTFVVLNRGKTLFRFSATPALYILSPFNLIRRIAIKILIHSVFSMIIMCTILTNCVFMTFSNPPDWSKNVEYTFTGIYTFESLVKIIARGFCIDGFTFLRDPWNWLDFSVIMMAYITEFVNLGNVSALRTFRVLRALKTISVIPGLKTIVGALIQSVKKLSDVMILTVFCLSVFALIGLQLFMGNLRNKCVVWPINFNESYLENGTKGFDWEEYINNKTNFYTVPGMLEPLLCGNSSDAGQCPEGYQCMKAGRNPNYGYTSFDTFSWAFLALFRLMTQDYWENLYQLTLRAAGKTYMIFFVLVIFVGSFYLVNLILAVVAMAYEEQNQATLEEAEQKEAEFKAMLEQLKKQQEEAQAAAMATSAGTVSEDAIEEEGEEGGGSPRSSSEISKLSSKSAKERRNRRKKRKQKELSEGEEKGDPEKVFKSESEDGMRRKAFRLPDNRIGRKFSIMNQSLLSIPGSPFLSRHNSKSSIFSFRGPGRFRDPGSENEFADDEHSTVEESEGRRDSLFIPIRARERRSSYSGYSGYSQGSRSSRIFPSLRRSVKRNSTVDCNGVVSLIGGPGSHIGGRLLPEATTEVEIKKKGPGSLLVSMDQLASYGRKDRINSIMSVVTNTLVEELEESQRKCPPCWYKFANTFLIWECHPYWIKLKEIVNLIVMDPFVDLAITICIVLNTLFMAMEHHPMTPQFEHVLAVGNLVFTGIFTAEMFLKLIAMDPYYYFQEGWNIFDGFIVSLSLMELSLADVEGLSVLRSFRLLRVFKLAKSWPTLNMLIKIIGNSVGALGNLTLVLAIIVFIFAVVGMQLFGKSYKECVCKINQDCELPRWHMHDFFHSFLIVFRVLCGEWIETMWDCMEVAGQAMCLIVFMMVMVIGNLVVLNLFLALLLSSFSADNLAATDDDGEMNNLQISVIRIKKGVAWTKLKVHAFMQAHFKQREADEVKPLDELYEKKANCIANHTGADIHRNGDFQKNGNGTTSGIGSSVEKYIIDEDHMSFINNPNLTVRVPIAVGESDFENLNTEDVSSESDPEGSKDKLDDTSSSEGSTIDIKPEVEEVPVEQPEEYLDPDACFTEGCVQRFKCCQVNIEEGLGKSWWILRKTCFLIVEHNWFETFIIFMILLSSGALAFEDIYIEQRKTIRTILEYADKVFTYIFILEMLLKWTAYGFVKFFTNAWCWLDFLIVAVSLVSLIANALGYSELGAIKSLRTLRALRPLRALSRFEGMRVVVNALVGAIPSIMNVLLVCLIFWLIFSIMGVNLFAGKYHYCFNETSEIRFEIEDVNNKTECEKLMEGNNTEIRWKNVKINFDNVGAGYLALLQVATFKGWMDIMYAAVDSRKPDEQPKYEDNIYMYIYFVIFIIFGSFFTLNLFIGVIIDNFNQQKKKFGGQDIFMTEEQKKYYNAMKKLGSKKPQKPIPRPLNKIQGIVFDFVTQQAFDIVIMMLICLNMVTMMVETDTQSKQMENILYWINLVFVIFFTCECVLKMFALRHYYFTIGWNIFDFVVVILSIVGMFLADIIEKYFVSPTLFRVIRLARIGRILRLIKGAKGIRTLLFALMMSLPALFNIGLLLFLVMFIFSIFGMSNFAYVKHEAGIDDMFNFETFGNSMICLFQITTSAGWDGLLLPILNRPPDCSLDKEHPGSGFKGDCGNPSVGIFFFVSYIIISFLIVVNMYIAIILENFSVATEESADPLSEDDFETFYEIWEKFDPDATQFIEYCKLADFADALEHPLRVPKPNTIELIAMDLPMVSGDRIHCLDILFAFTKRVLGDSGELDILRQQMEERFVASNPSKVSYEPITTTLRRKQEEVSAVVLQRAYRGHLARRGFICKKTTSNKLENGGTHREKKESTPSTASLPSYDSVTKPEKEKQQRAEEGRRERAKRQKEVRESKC
Description: In this example, the in vitro effects of 2-heptanone on the following ion channels were evaluated at room temperature using the PatchXpress 7000A (Molecular Devices), an automatic parallel patch clamp system:
(§1) 1. Cloned hNav1.2 sodium channels (SCN2A gene, expressed in CHO cells). 2. Cloned hNav1.6 sodium channels (SCN8A gene, expressed in CHO cells).
The effects of 2-heptanone were evaluated at 0.73, 1.46, 2.19, and 2.92 mg/ml with each concentration tested in two cells (n=2). The duration of exposure to each concentration of 2-heptanone was 5 minutes. Tables 2 to 5 show the individual results from each concentration followed by individual concentration-response curves. The positive controls (Table 6) confirm the sensitivity of the test systems to inhibition.
. Br. J. Pharmacol. 164, 719-730). […]

gastrocnemius muscle = assay: In vivo muscle CAP (mCAP, EMG integral) after intramuscular injection, gastrocnemius muscle; parameters: species or system rat; details: 10.8 mg/kg intramuscular
[3] = biological target: T2, hNav1.2 sodium channels (SCN2A gene, expressed in CHO cells) (Homo sapiens, UniProt Q99250); assay: Automated patch clamp (PatchXpress 7000A), cloned hNav1.2 in CHO cells, tonic and phasic; format: cell-based; details: for inhibition at 2000 µM: CHO
T2 construct: expressed in transfected cells; host or cells: CHO cells
T2 sequence (Q99250 whole entry): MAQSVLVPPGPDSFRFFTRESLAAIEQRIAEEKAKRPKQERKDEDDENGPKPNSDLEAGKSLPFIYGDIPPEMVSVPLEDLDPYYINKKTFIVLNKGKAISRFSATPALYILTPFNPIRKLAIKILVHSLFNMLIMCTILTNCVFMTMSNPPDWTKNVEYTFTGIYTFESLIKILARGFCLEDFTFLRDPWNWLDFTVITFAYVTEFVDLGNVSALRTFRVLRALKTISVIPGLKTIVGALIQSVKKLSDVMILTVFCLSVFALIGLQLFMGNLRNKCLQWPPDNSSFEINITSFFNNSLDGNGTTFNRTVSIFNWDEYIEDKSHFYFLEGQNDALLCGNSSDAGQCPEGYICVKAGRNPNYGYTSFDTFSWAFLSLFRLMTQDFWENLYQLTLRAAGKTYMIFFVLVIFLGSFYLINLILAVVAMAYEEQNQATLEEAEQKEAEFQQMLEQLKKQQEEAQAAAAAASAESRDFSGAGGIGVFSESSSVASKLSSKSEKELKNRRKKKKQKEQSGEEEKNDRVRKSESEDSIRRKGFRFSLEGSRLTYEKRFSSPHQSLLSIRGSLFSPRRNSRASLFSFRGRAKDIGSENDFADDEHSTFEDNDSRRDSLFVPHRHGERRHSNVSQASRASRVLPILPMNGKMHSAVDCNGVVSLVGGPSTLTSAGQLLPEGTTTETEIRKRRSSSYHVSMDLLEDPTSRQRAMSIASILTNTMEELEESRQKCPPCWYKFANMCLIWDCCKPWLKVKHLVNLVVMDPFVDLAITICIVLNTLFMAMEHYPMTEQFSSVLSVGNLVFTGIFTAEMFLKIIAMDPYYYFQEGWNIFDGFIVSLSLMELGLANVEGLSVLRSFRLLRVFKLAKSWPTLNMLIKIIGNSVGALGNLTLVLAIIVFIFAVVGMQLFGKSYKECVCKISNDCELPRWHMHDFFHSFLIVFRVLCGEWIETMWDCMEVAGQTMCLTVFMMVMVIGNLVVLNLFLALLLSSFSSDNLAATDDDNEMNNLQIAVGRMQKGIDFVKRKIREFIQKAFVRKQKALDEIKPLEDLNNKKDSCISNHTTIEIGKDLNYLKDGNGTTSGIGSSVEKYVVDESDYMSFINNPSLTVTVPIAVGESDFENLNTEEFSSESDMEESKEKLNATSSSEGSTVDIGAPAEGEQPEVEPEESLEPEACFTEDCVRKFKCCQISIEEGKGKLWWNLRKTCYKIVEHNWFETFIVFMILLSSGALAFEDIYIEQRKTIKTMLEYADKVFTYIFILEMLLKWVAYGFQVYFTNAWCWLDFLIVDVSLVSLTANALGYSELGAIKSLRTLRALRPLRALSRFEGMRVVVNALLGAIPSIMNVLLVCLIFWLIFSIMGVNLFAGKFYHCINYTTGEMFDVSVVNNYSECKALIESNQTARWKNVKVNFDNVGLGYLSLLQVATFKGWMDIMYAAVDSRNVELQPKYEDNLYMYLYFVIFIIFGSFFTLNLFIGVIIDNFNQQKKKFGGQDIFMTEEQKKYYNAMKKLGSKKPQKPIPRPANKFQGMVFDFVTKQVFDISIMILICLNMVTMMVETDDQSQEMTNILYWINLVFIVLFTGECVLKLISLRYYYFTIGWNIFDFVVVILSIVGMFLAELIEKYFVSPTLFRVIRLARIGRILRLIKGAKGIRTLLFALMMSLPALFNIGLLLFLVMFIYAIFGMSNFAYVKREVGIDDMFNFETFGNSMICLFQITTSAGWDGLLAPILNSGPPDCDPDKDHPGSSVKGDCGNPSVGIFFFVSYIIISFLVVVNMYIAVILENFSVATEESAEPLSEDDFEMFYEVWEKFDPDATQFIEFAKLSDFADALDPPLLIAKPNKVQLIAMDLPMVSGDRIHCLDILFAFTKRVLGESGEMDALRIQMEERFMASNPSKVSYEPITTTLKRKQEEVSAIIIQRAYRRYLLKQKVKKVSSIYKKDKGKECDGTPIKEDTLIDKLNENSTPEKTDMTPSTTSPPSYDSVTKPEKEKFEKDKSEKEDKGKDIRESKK
Description: as §1

[4] = 2 mM (0.46 mg/mL), single cells

## CCN(CC)CC(=O)Nc1c(C)cccc1C [lidocaine, 2-(diethylamino)-N-(2,6-dimethylphenyl)-acetamide, reference compound]
[1]
  IT100 / IT0: 320 ± 14.96 s
[1]; listed as Lidocaine
  IT100 / IT0: 320.3 ± 14.96 s
[1]; 10 mM, stirred saline, individual nerves
  IT0: 90 s and 150 s
[1]; 10 mg/mL
  IT50 (time to inhibit CAP amplitude to 50% of control): 12.0 ± 0.95 s
[1]; after 1.41 mg/mL
  recovery of the CAP after washout, % of control: 95%
[1]; estimated from time-response curves, GraphPad Prism 5
  IC50 (concentration required to inhibit the CAP to 50% of control): 337 ± 1 µg/mL
[2]; [4]
  Individual Data Points (% Inhibition), Nav1.6 (positive control): 59.3%
[2]; read-out: Individual Data Points (% Inhibition), Nav1.6 (positive control), 2 mM (0.46 mg/mL), single cells
  inhibition at 2000 µM: 63.8%
[2]; read-out: Mean % Inhibition of Nav1.6 (positive control), 2 mM (0.46 mg/mL)
  inhibition at 2000 µM: 61.5%
[2]; Example 18, mean ± SEM
  hNav1.6 IC50, phasic: 70 ± 10 µg/mL
  hNav1.6 IC50, tonic: 290 ± 10 µg/mL
[2]; read-out: Nav1.6 IC50, phasic
  IC50: 260 µM
[2]; read-out: Nav1.6 IC50, tonic
  IC50: 1100 µM
Gastrocnemius muscle
  IT50 of the integral of mCAPs: 19.30 ± 1.92 s
  recovery of mCAP, % of initial values after 3 h: 70.3±8.67% and 70.3%
[3]; [4]
  Individual Data Points (% Inhibition), Nav1.2 (positive control): 74.9%
[3]; read-out: Individual Data Points (% Inhibition), Nav1.2 (positive control), 2 mM (0.46 mg/mL), single cells
  inhibition at 2000 µM: 76.1%
[3]; read-out: Mean % Inhibition of Nav1.2 (positive control), 2 mM (0.46 mg/mL)
  inhibition at 2000 µM: 75.5%
